Like-named read-outs stand apart in the source and are kept apart here.
Tests used:
[1] = system: PF-382 leukemia T-cells, MiaPaCa-2 pancreatic cells, U87MG glioblastoma-astrocytoma cells, Colo-38 skin melanoma cells, HeLa and Caski cervical carcinoma cells; design: method as in PMID 21886765; conditions: PF-382, MiaPaCa-2, U87MG, Colo-38, HeLa, read-out: IC50 against a panel of cancer cell lines; cited from earlier work
[2] = system: normal CRL2120 human skin fibroblasts; assay: Neutral red (NR) uptake cytotoxicity assay, normal CRL2120 fibroblasts; assay type: cell-based; conditions: Skin fibroblast, 72 h incubation
Text: (§1) Six human cancer cell lines and one normal cell line were used in this study. They included A549 human non-small cell lung cancer (NSCLC) cell line, obtained from the Institute for Fermentation, Osaka (IFO, Japan) and provided by Prof. Dr. Tansu Koparal (Anadolu University, Eskisehir, Turkey), SPC212 human mesothelioma cell line obtained from American Type Culture Collection (ATCC) and provided by Dr. Asuman Demiroğlu Zergeroğlu (Gebze Technical University, Kocaeli, Turkey), DLD-1 colorectal adenocarcinoma cell lines obtained from ATCC (CCL-221), Caco2 colorectal adenocarcinoma cells (ATCC, HTB-37) obtained from the ŞAP Institute of Turkey (Ankara), HepG2 hepatocarcinoma cells (ATCC, HB-8065) and MCF-7 breast adenocarcinoma cells (ATCC, HTB-22) were provided by Prof. Dr. Tansu Koparal (Anadolu University, Eskisehir, Turkey). The normal CRL2120 human skin fibroblasts were obtained from ATCC [CCD1094Sk (ATCC, CRL-2120)]. The cells were maintained as a monolayer in DMEM medium (Sigma-aldrich, Munich, Germany) medium supplemented with 10% fetal calf serum and 1% penicillin (100 U/mL)-streptomycin (100 μg/mL) in a humidified 5% CO2 atmosphere at 37 °C.
(§2) The cytotoxicity of samples was performed by NR uptake assay as previously described. This method is based on the ability of viable cells to incorporate and bind the supravital dye NR in the lysosomes. The procedure is cheaper and more sensitive than other cytotoxicity tests. […] Briefly, cells were detached by treatment with 0.25% trypsin/EDTA (Invitrogen) and an aliquot of 1 × 10^4 cells was placed in each well of a 96-well cell culture plate […]. The cells were allowed to attach overnight and subsequently treated with different concentrations of the 14 compounds. Each of the studied samples was immediately added in varying concentrations in additional 100 μL of culture medium to obtain a total volume of […]/well. After 72 h incubation in humidified 5% CO2 atmosphere at 37 °C, the medium was removed and 200 μL fresh medium containing 50 μg/mL NR was added to each well and incubation continued for an additional 3 h at 37 °C in 5% CO2 atmosphere. The dye medium was then removed and each well was then washed rapidly with 200 μL phosphate buffer saline (PBS) followed by addition of 200 μL of acetic acid-water-ethanol in water (1:49:50). The plates were kept for 15 min at room temperature to extract the dye and then shaken for a few minutes on a GFL 3012 shaker (Gesellschaft für Labortechnik mbH, Burgwedel, Germany). Absorbance was measured on ELx 808 Ultra Microplate Reader (Biotek) equipped with a 540 nm filter. Each assay was done at least three times, with three replicates each. The viability was evaluated based on a comparison with untreated cells. The IC50 values represent the sample’s concentrations required to inhibit 50% of cell proliferation and were calculated from a calibration curve by linear regression using Microsoft Excel.

[3] = system: Caco2 colorectal adenocarcinoma cells; assay: Neutral red (NR) uptake cytotoxicity assay, Caco-2; assay type: cell-based, human; conditions: Homo sapiens, Caco-2; neutral red assay, 72 h incubation
Text: as §1, §2

[4] = Neutral red (NR) uptake cytotoxicity assay, Caco-2; assay type: cell-based, human; conditions: human; IC50 in CRL2120 normal fibroblasts divided by IC50 in Caco-2; read-out: selectivity index Caco-2 (converted)
Text: as §1, §2

[5] = system: HepG2 hepatocarcinoma cells; assay: Neutral red (NR) uptake cytotoxicity assay, HepG2; assay type: cell-based, human; conditions: for IC50: Homo sapiens, read-out: IC50 HepG2
Text: as §1, §2

[6] = system: DLD-1 colorectal adenocarcinoma cell lines; assay: Neutral red (NR) uptake cytotoxicity assay, DLD-1; assay type: cell-based, human; conditions: for IC50: Homo sapiens, read-out: IC50 DLD-1
Text: as §1, §2

[7] = system: six tested cancer cell lines (A549, SPC212, DLD-1, Caco-2, MCF-7, HepG2); assay: Neutral red uptake assay, statements over the six tested cancer cell lines; assay type: cell-based, human; conditions: for IC50: Homo sapiens, bound valid for all six cancer cell lines, neutral red assay
Text: as §1, §2

[8] = system: MCF-7 breast adenocarcinoma cells; assay: Neutral red (NR) uptake cytotoxicity assay, MCF-7; assay type: cell-based, human; conditions: for IC50: read-out: IC50 MCF-7
Text: as §1, §2

[9] = system: A549 human non-small cell lung cancer (NSCLC) cell line; assay: Neutral red (NR) uptake cytotoxicity assay, A549; assay type: cell-based
Text: as §1
as §2, with “lysosomes.” for “lysosomes. The procedure is cheaper and more sensitive than other cytotoxicity tests.”

[10] = system: SPC212 human mesothelioma cell line; assay: Neutral red (NR) uptake cytotoxicity assay, SPC212; assay type: cell-based; conditions: for IC50: Homo sapiens, 72 h
Text: as §1, §2

MCF-7 cells [11] = assay: Measurement of reactive oxygen species (ROS), DCFH-DA; assay type: cell-based, human; conditions: at IC50, 24 h
Method: This is a cell-based assay for measuring hydroxyl, peroxyl, or other reactive oxygen species activity within a cell. The assay employs the cell-permeable fluorogenic probe 2′,7′-dichlorodihydrofluorescin diacetate (DCFH-DA). DCFH-DA is diffused into cells and is deacetylated by cellular esterases to non-fluorescent 2′,7′-dichlorodihydrofluorescin (DCFH), which is rapidly oxidized to highly fluorescent 2′,7′-dichlorofluorescein (DCF) by ROS. […] After addition of 100 μL 1× DCFH-DA/DMEM solution to cells and incubation at 37 °C for 30–60 min, the fluorescence was measured using SpectraMax® M5 Microplate Reader (Molecular Devices, Biberach, Germany) at 480/530 nm. All experiments were performed at least in triplicate.

MCF-7 cells [12] = assay: Flow cytometry cell cycle analysis and detection of apoptotic cells; assay type: cell-based, human; conditions: IC50, 72 h, non-treated cells 3.1%
Method: The cell-cycle analysis was performed by flow cytometry using BD cycletest^TM Plus DNA Kit Assay (BD Biosciences, San Jose, USA). The BD Cycletest™ Plus DNA kit provides a set of reagents for isolating and staining cell nuclei. Flow cytometric analysis of differentially stained cells is used to estimate the DNA index (DI) and cell-cycle phase distributions. Briefly, MCF-7 cells (3 mL, 1 × 10^5 cells/mL) were seeded into each well of 6-well plates and allowed to attach for 24 h. […] The untreated cells (control) were also included in the assay. They were further trypsinized and suspended in 1 mL PBS, then centrifuged at 400 g for 5 min at room temperature (RT). The cells were further processed according to the manufacturer protocol: addition of 250 μL of solution A (trypsin buffer), 10 min incubation at RT followed by the addition of 200 μL of solution B (trypsin inhibitor and RNAse buffer), 10 min incubation at RT followed by the addition of 200 μL of solution C (2–8 °C) (propidium iodide stain solution), 10 min on ice. The cells were further measured on a BD FACS Aria I Cell Sorter Flow Cytometer (Becton-Dickinson, Germany). For each sample, 10^4 cells were counted. For PI excitation, an argon-ion laser emitting at 488 nm was used. Cytographs were analyzed using BD FACSDiva™ Flow Cytometry Software Version 6.1.2 (Becton-Dickinson).

MCF-7 cells [13] = assay: Mitochondrial membrane potential (MMP) analysis, JC-1 staining, flow cytometry; assay type: cell-based, human; conditions: IC50 (C3), 72 h, control 4.3%
Method: The MMP was analyzed in MCF-7 cells by 5,5′,6,6′-tetrachloro-1,1′,3,3′-tetraethylbenzimidazolylcarbocyanine iodide) (JC-1; Biomol, Hamburg, Germany) staining as previously reported. […] Subsequently, cells were measured in a BD FACS Aria I Cell Sorter Flow Cytometer (Becton-Dickinson, Germany). The JC-1 signal was measured at an excitation of 561 nm (150 mW) and detected using a 586/15 nm band-pass filter. The signal was analyzed at 640 nm excitation (40 mW) and detected using a 730/45 nm bandpass filter. Cytographs were analyzed using BD FACSDiva™ Flow Cytometry Software Version 6.1.2 (Becton-Dickinson). All experiments were performed at least in triplicate.

In the case of `CC(=O)c1cc2c(o1)C(=O)c1ccccc1C2=O` [2-acetylfuro-1,4-naphthoquinone], the IC50 [1] is given as < 10 µM.
Work on `CCCC/C=C\CCCCCCCCCCCCCC1=C(OC(C)=O)C(OC(C)=O)C(C)=C(OC(C)=O)C1OC(C)=O` (stereo not drawn) [Compound 13, 1,2,4,5-tetraacetate-3-methyl-6-(14-nonadecenyl)-cyclohexadi-2,5-diene] yielded an IC50 [2] of 93.2 ± 1.17 µM, an IC50 [3] of 24.6 ± 2.71 µM and a selectivity ratio at 72 h [4] of 3.78. For the same compound, the IC50 ([5]; HepG2, neutral red assay, 72 h incubation) was 18.2 ± 1.46 µM, the “selectivity index HepG2” value ([5]; IC50 in CRL2120 normal fibroblasts divided by IC50 in HepG2) was 5.13 and the IC50 ([6]; DLD-1, neutral red assay, 72 h incubation) was 25.1 ± 1.5 µM. For the same compound, the “selectivity index DLD-1” value ([6]; IC50 in CRL2120 normal fibroblasts divided by IC50 in DLD-1) was 3.72, the IC50 [7] was < 100 µM and the “selectivity indexes (CRL2120 vs carcinoma cells), lower bound over the cancer cell lines” value ([7]; IC50 CRL2120 / IC50 cancer cell line) was > 1.96. For the same compound, the IC50 ([8]; Homo sapiens, MCF7, 72 h, neutral red assay, 72 h incubation) was < 10 µM, the “selectivity index MCF-7” value ([8]; IC50 in CRL2120 normal fibroblasts divided by IC50 in MCF-7) was 10.08 and the IC50 ([8]; neutral red assay, 72 h incubation) was 9.25 ± 0.16 µM. For the same compound, the IC50 ([9]; Homo sapiens, A549, 72 h, neutral red assay, 72 h incubation) was 47.5 ± 3.56 µM, the “selectivity index A549” value ([9]; IC50 in CRL2120 normal fibroblasts divided by IC50 in A549) was 1.96 and the IC50 ([10]; neutral red assay, 72 h incubation, read-out: IC50 SPC212) was 36.2 ± 3.08 µM. For the same compound, the “selectivity index SPC212” value ([10]; IC50 in CRL2120 normal fibroblasts divided by IC50 in SPC212) was 2.57.
With `COc1cccc2c1C(=O)c1c(O)c3c(c(O)c1C2=O)C[C@@](O)(C(=O)CO)C[C@@H]3O[C@H]1C[C@H](N)[C@H](O)[C@H](C)O1` [Doxorubicin, reference compound] the “increase in ROS levels as compared with non-treated cells” value (MCF-7 cells [11]) was “more than 2 fold”, the “Sub-G0/G1 (apoptotic) cells, % of cells” value (MCF-7 cells [12]) was 60% and the IC50 [2] was 0.59 ± 0.01 µM. For the same compound, the IC50 [3] was 0.72 ± 0.13 µM, the IC50 ([5]; HepG2, 72 h) was 0.18 ± 0.03 µM and the “MMP, gate P2 (loss / depletion of MMP)” value (MCF-7 cells [13]) was 26%. For the same compound, the IC50 ([6]; DLD-1, 72 h) was 0.37 ± 0.05 µM, the IC50 [7] was < 100 µM and the IC50 ([8]; Homo sapiens, MCF7, 72 h) was 0.35 ± 0.05 µM. For the same compound, the IC50 ([10]; read-out: IC50 SPC#) was 0.07 ± 0.01 µM.
